Assays:
Sclerotinia sclerotiorum [1] = assay: Antifungal activity against Sclerotinia sclerotiorum assessed as inhibition of mycelial growth in contact phase at 2252 umol/l measured at 20 degC after 5 days; format: functional; details: 120 h, read-out: GI
Sclerotinia sclerotiorum [2] = assay: Antifungal activity against Sclerotinia sclerotiorum assessed as inhibition of mycelial growth in contact phase at 1501 umol/l measured at 20 degC after 5 days; format: functional; details: 120 h, read-out: GI
Sclerotinia sclerotiorum [3] = assay: Fungistatic activity in Sclerotinia sclerotiorum assessed as sclerotial viability measured at 20 degC after 5 days; format: functional, organism-based; details: 120 h
Sclerotinia sclerotiorum [4] = assay: Antifungal activity against Sclerotinia sclerotiorum assessed as inhibition of germination in volatile phase at 375 umol/l measured at 20 degC after 5 days; format: functional; details: 120 h
Sclerotinia sclerotiorum [5] = assay: Fungistatic activity in Sclerotinia sclerotiorum assessed as inhibition of mycelial growth in contact phase measured at 20 degC after 5 days; format: functional, organism-based; details: 120 h
Sclerotinia sclerotiorum [6] = assay: Fungistatic activity in Sclerotinia sclerotiorum assessed as inhibition of carpogenic germination in volatile phase at 375 umol/l measured at 20 degC after 5 days relative to control; format: functional; details: 120 h
Sclerotinia sclerotiorum [7] = assay: Fungitoxic activity in Sclerotinia sclerotiorum assessed as viability in volatile phase at 225 umol/l measured at 20 degC after 5 days relative to control; format: functional; details: 120 h, read-out: GI
Sclerotinia sclerotiorum [8] = assay: Antifungal activity against Sclerotinia sclerotiorum assessed as inhibition of germination in volatile phase at 225 umol/l measured at 20 degC after 5 days; format: functional; details: 120 h
Sclerotinia sclerotiorum [9] = assay: Antifungal activity against Sclerotinia sclerotiorum assessed as inhibition of germination in volatile phase at 751 umol/l measured at 20 degC after 5 days; format: functional; details: 120 h
Sclerotinia sclerotiorum [10] = assay: Antifungal activity against Sclerotinia sclerotiorum assessed as inhibition of mycelial growth in volatile phase at 375 umol/l measured at 20 degC after 5 days; format: functional; details: 120 h, read-out: GI
Sclerotinia sclerotiorum [11] = assay: Fungistatic activity in Sclerotinia sclerotiorum assessed as inhibition of mycelial growth in volatile phase at 525 umol/l measured at 20 degC after 5 days relative to control; format: functional; details: 120 h, read-out: GI
Sclerotinia sclerotiorum [12] = assay: In vivo antifungal Sclerotinia sclerotiorum in Pepper (Capsicum annuum L. cv. Sera Demre) assessed as inhibition of mycelial growth in volatile phase at 75 umol/L measured after 10 to 14 weeks; format: functional
Sclerotinia sclerotiorum [13] = assay: Antifungal activity against Sclerotinia sclerotiorum assessed as inhibition of germination in volatile phase at 38 umol/l measured at 20 degC after 5 days; format: functional; details: 120 h
Sclerotinia sclerotiorum [14] = assay: Fungistatic activity in Sclerotinia sclerotiorum assessed as inhibition of carpogenic germination in volatile phase at 751 umol/l measured at 20 degC after 5 days relative to control; format: functional; details: 120 h
Sclerotinia sclerotiorum [15] = assay: Antifungal activity against Sclerotinia sclerotiorum assessed as inhibition of mycelial growth in volatile phase at 38 umol/l measured at 20 degC after 5 days; format: functional; details: 120 h, read-out: GI
Sclerotinia sclerotiorum [16] = assay: Fungistatic activity in Sclerotinia sclerotiorum assessed as inhibition of carpogenic germination in volatile phase at 75 umol/l measured at 20 degC after 5 days relative to control; format: functional; details: 120 h
Sclerotinia sclerotiorum [17] = assay: Fungistatic activity in Sclerotinia sclerotiorum assessed as inhibition of mycelial growth in contact phase at 1501 umol/l measured at 20 degC after 5 days relative to control; format: functional; details: 120 h, read-out: GI
Sclerotinia sclerotiorum [18] = assay: Fungistatic activity in Sclerotinia sclerotiorum assessed as inhibition of carpogenic germination in volatile phase at 38 umol/l measured at 20 degC after 5 days relative to control; format: functional; details: 120 h
Sclerotinia sclerotiorum [19] = assay: In vivo antifungal Sclerotinia sclerotiorum in Pepper (Capsicum annuum L. cv. Sera Demre) assessed as inhibition of mycelial growth in volatile phase at 150 umol/L measured after 10 to 14 weeks; format: functional
Sclerotinia sclerotiorum [20] = assay: Antifungal activity against Sclerotinia sclerotiorum assessed as inhibition of mycelial growth in volatile phase at 75 umol/l measured at 20 degC after 5 days; format: functional; details: 120 h, read-out: GI
Sclerotinia sclerotiorum [21] = assay: Antifungal activity against Sclerotinia sclerotiorum assessed as inhibition of mycelial growth in volatile phase at 751 umol/l measured at 20 degC after 5 days; format: functional; details: 120 h, read-out: GI
Sclerotinia sclerotiorum [22] = assay: Antifungal activity against Sclerotinia sclerotiorum assessed as inhibition of mycelial growth in contact phase at 751 umol/l measured at 20 degC after 5 days; format: functional; details: 120 h, read-out: GI
Sclerotinia sclerotiorum [23] = assay: Fungistatic activity in Sclerotinia sclerotiorum assessed as inhibition of mycelial growth in volatile phase measured at 20 degC after 5 days; format: functional, organism-based; details: 120 h
Sclerotinia sclerotiorum [24] = assay: Antifungal activity against Sclerotinia sclerotiorum assessed as inhibition of mycelial growth in contact phase at 525 umol/l measured at 20 degC after 5 days; format: functional; details: 120 h, read-out: GI
Sclerotinia sclerotiorum [25] = assay: Antifungal activity against Sclerotinia sclerotiorum assessed as inhibition of germination in volatile phase at 75 umol/l measured at 20 degC after 5 days; format: functional; details: 120 h
Sclerotinia sclerotiorum [26] = assay: Fungitoxic activity in Sclerotinia sclerotiorum assessed as inhibition of mycelial growth in volatile phase at 751 umol/l measured at 20 degC after 5 days relative to control; format: functional; details: 120 h, read-out: GI
Sclerotinia sclerotiorum [27] = assay: Antifungal activity against Sclerotinia sclerotiorum assessed as inhibition of mycelial growth in contact phase at 676 umol/l measured at 20 degC after 5 days; format: functional; details: 120 h, read-out: GI
Sclerotinia sclerotiorum [28] = assay: Antifungal activity against Sclerotinia sclerotiorum assessed as inhibition of mycelial growth in volatile phase at 525 umol/l measured at 20 degC after 5 days; format: functional; details: 120 h, read-out: GI
Sclerotinia sclerotiorum [29] = assay: Fungitoxic activity in Sclerotinia sclerotiorum assessed as inhibition of mycelial growth in contact phase at 2252 umol/l measured at 20 degC after 5 days relative to control; format: functional; details: 120 h, read-out: GI

S=C=NCc1ccccc1 [BENZYL ISOTHIOCYANATE]
inhibition of growth at 2252 µM (Sclerotinia sclerotiorum [1]): 100% | inhibition of growth at 1501 µM (Sclerotinia sclerotiorum [2]): 100% | EC50 (Sclerotinia sclerotiorum [3]): 75.1 µM | inhibition at 375 µM (Sclerotinia sclerotiorum [4]): 100% | EC50 (Sclerotinia sclerotiorum [5]): 676 µM | inhibition at 375 µM (Sclerotinia sclerotiorum [6]): 72.5% | inhibition of growth at 225 µM (Sclerotinia sclerotiorum [7]): 100% | inhibition at 225 µM (Sclerotinia sclerotiorum [8]): 100% | inhibition at 751 µM (Sclerotinia sclerotiorum [9]): 100% | inhibition of growth at 375 µM (Sclerotinia sclerotiorum [10]): 78.2% | inhibition of growth at 525 µM (Sclerotinia sclerotiorum [11]): 100% | inhibition in vivo at 75 µM (Sclerotinia sclerotiorum [12]): 36.7% | inhibition at 38 µM (Sclerotinia sclerotiorum [13]): 6.7% | inhibition at 751 µM (Sclerotinia sclerotiorum [14]): 92.5% | inhibition of growth at 38 µM (Sclerotinia sclerotiorum [15]): 35% | inhibition at 75 µM (Sclerotinia sclerotiorum [16]): 62.5% | inhibition of growth at 1501 µM (Sclerotinia sclerotiorum [17]): 100% | inhibition at 38 µM (Sclerotinia sclerotiorum [18]): 55% | inhibition in vivo at 150 µM (Sclerotinia sclerotiorum [19]): 63.3% | inhibition of growth at 75 µM (Sclerotinia sclerotiorum [20]): 71.2% | inhibition of growth at 751 µM (Sclerotinia sclerotiorum [21]): 100% | inhibition of growth at 751 µM (Sclerotinia sclerotiorum [22]): 100% | EC50 (Sclerotinia sclerotiorum [23]): 60.1 µM | inhibition of growth at 525 µM (Sclerotinia sclerotiorum [24]): 5% | inhibition at 75 µM (Sclerotinia sclerotiorum [25]): 53.3% | inhibition of growth at 751 µM (Sclerotinia sclerotiorum [26]): 100% | inhibition of growth at 676 µM (Sclerotinia sclerotiorum [27]): 37% | inhibition of growth at 525 µM (Sclerotinia sclerotiorum [28]): 100% | inhibition of growth at 2252 µM (Sclerotinia sclerotiorum [29]): 100%

From ChEMBL document CHEMBL3046027, “In vitro and in vivo antifungal activity of synthetic pure isothiocyanates against Sclerotinia sclerotiorum” (Pest Manag Sci, 2011)
